From patent US20120156314A1, “11 beta, 13-DIHYDROHELENALIN DERIVATIVES AND USES THEREOF AS BOMBESIN RECEPTOR SUBTYPE 3 AGNOISTS” (VIOGENE-BIOTEK CORPORATION, priority 2010, published 2012) come the findings set out here.

Like-named read-outs stand apart in the source and are kept apart here. A value given as a limit tells only on which side of the number the result lay.

One assay concerns the target BRS3 (Homo sapiens, UniProt P32247). In words: cell-based.
Another assay addresses T1, human BRS3 (Homo sapiens, UniProt P32247).
T1 construct: expressed in transfected cells; host or cells: U2OS
T1 sequence (P32247 1-399): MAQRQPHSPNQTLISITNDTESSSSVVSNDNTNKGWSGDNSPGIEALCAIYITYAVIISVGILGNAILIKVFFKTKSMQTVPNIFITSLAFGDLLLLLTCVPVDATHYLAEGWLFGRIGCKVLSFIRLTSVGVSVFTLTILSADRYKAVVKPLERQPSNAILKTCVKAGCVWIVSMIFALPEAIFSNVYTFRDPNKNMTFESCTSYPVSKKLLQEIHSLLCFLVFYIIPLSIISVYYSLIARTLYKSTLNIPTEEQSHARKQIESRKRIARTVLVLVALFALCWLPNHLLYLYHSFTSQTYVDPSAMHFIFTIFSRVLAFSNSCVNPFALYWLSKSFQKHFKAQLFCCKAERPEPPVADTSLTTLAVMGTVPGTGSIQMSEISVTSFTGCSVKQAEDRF
In words: Cytosolic Ca++ mobilization assay in U2OS cells expressing BRS3. Format: cell-based. The following applies: for magnitude of released calcium and time to reach the peak of the transient: dose response. Here is the method: Fluorescence was measured at dual excitation wavelengths of 340 nm and 380 nm, using an emission wavelength of 510 nm. Autofluorescence was corrected for by running a sample of unlabeled cells in identical experimental conditions.

Another assay deals with GRPR (Homo sapiens, UniProt P30550). In words: cell-based. As to conditions: Table 6.
Sequence of GRPR (P30550 whole entry, species assumed): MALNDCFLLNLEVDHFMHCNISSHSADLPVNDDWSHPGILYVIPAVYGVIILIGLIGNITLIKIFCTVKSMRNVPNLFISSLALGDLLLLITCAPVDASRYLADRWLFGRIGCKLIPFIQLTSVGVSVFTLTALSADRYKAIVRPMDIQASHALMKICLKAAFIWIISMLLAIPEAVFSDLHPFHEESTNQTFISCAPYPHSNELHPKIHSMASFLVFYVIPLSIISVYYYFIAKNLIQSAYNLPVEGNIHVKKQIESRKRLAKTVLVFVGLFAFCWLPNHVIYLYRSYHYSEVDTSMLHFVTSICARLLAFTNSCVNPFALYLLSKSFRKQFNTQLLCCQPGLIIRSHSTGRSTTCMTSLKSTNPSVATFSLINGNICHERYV
The subject of assay [1] is U2OS cells that does not express BRS3. How it is done: After two washes with assay buffer, 2 ml of cell suspension were placed in a Delta PTI Scan 1 spectrofluorimeter (Photon Technology International, South Brunswick, N.J.) equipped with a stir bar and water bath (37° C.). Fluorescence was measured at dual excitation wavelengths of 340 nm and 380 nm, using an emission wavelength of 510 nm. Autofluorescence was corrected for by running a sample of unlabeled cells in identical experimental conditions.

The target in a further assay is NMBR (Homo sapiens, UniProt P28336). In words: cell-based. The following applies: Table 6.
Sequence of NMBR (P28336 whole entry, species assumed): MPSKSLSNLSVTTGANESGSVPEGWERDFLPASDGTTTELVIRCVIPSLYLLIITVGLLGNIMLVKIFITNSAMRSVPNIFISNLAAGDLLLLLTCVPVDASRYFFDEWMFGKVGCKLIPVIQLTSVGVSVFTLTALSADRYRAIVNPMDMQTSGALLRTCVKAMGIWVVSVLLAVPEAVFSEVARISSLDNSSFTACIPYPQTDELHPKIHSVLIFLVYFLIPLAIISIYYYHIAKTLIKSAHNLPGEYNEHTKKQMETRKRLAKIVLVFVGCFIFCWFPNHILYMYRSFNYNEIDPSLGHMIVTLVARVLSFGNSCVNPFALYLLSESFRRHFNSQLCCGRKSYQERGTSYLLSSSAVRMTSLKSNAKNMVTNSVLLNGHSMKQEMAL
The mark [2] stands for this setting: Table 5, U2OS cells expressing human BRS3, read-out: EC50 Ca++.

Turning to `C=C(C)C(=O)O[C@H]1[C@H]2[C@@H](C[C@@H](C)[C@@H]3C=CC(=O)[C@]31C)OC(=O)[C@@H]2C` [Compound 1, Arnicolide D], the half-maximal effective concentration (EC50) (commonly the midpoint of the concentration-response curve) on BRS3 (EC50 Arrestin, Table 5) is 2.8 µM; at human BRS3, 10 µM.
As to `CC(C)CC(=O)O[C@H]1[C@H]2[C@@H](C[C@@H](C)[C@@H]3C=CC(=O)[C@]31C)OC(=O)[C@@H]2C` [Compound 5, Arnicolide B], the half-maximal effective concentration (EC50) at BRS3 (EC50 Arrestin, Table 5) was determined as 7.5 µM; at human BRS3, 20 µM.
Take `CCC(C)C(=O)O[C@H]1[C@H]2[C@@H](C[C@@H](C)C3C=CC(=O)[C@]31C)OC(=O)[C@@H]2C` (some centres unmarked) [Compound 4, Microhelenin B]: the half-maximal effective concentration (EC50) on GRPR is above 861 µM; at BRS3 (EC50 Arrestin, Table 5) it was 2.35 µM; on BRS3 (EC50 BRS3, Table 6), 3.73 µM; on human BRS3 it was 4.2 µM; at NMBR it was above 861 µM. Also, the “time of return of cytosolic calcium to basal levels” value at human BRS3 (6.8 μg/ml) came out at 1 min. Moreover, at human BRS3 (6.8 μg/ml), the “time to maximal level of cytosolic calcium” value came out at 13 s. Also, on human BRS3, the “magnitude of released calcium and time to reach the peak of the transient” value (“magnitude of released calcium and time” below) was “concentration-dependent and saturable”. The “cytosolic Ca++ release in cells without BRS3” value in assay [1] is on record as “not able to stimulated cytosolic Ca^++ release”.
As for `CC=C(C)C(=O)OC1C2C(CC(C)C3C=CC(=O)C31C)OC(=O)C2C` (centres unmarked) [Compound 3, Microhelenin C], the concentration giving a half-maximal response (EC50) turned out to be 2 µM on BRS3 (EC50 Arrestin, Table 5) and 11 µM on human BRS3.
`CCC(C)C(=O)O[C@H]1[C@@H]2[C@H](C)C(=O)O[C@@H]2C[C@@H](C)C2[C@@H](O)CC(=O)[C@]21C` (some centres unmarked) [Compound A, arnifoline]: the half-maximal effective concentration (EC50) on GRPR is above 1360 µM; on BRS3 (EC50 Arrestin, Table 5), 2.7 µM; at BRS3 (EC50 BRS3, Table 6) it was 2.73 µM; on human BRS3 (setting [2]), 2.6 µM; on NMBR, above 1360 µM. Further, the “magnitude of released calcium and time” value at human BRS3 is “concentration-dependent and saturable”.
Turning to `CCC(C)C(=O)O[C@H]1[C@@H]2[C@H](C)C(=O)O[C@@H]2C[C@@H](C)C2[C@@H](C)CC(=O)[C@]21C` (stereo partly drawn) [Compound B, 11α-13-dihydroarnifolin B], the EC50 on GRPR is above 686 µM; at BRS3 (EC50 Arrestin, Table 5), 14 µM; on BRS3 (EC50 BRS3, Table 6) it was 13.7 µM; on human BRS3 (setting [2]), 9.6 µM; at NMBR, above 823 µM. On human BRS3 (25 μg/ml), the “time of return of cytosolic calcium to basal levels” value was found to be 1 min. Besides, at human BRS3 (25 μg/ml), the “time to maximal level of cytosolic calcium” value was 13 s. Further, the “magnitude of released calcium and time” value at human BRS3 was “concentration-dependent and saturable”. For the same compound, in assay [1], the “cytosolic Ca++ release in cells without BRS3” value is “not able to stimulated cytosolic Ca^++ release”.
As to `CC(C)C(=O)O[C@H]1[C@H]2[C@@H](C[C@@H](C)[C@@H]3C=CC(=O)[C@]31C)OC(=O)[C@@H]2C` [Compound 2, Arnicolide C], the 50% effective concentration (EC50) on BRS3 (EC50 Arrestin, Table 5) was determined as 2.8 µM; at human BRS3, 12 µM.
